The values that follow come from article PMC9516332 (Frontiers in Oncology, 2022).

Common to all, as to assay: Kinase panel profiling at 1 µmol/L (MSA or IMAP), percentage inhibition
Format in all cases: biochemical

For assay [1], the target named is T1, panel of 255 wild-type kinases (Homo sapiens, UniProt P21709).
T1 sequence (P21709 26-976): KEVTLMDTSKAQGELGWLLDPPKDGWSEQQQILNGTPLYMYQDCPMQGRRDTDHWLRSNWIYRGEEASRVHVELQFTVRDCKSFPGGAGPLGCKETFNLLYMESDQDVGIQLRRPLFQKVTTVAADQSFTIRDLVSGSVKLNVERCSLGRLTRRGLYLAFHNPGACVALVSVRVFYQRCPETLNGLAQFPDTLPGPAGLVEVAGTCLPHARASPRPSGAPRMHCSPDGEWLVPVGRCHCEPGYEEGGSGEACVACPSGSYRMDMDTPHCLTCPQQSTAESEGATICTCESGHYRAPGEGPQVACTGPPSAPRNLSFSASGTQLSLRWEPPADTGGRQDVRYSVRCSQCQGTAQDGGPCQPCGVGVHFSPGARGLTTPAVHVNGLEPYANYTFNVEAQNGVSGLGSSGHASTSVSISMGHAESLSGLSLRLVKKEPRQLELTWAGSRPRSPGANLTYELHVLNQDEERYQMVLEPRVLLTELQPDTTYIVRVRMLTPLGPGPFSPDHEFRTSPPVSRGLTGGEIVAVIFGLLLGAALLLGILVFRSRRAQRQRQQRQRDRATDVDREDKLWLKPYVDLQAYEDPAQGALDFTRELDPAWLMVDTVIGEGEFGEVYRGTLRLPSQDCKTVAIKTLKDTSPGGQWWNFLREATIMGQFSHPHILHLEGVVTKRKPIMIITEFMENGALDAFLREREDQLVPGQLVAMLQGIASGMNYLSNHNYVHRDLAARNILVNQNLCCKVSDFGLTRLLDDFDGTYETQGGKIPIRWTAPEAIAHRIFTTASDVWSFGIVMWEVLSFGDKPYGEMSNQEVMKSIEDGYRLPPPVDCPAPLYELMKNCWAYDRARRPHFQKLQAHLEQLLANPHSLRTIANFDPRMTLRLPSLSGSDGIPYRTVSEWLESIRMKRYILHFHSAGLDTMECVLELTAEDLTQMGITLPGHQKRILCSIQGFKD
As to conditions: kinase EPHA1; 1 µmol/L single concentration; read-out: %-inhibition at 1 µmol/L, EPHA1.

Assay [2] deals with T2, panel of 255 wild-type kinases (Homo sapiens, UniProt Q14164).
T2 sequence (Q14164 1-716): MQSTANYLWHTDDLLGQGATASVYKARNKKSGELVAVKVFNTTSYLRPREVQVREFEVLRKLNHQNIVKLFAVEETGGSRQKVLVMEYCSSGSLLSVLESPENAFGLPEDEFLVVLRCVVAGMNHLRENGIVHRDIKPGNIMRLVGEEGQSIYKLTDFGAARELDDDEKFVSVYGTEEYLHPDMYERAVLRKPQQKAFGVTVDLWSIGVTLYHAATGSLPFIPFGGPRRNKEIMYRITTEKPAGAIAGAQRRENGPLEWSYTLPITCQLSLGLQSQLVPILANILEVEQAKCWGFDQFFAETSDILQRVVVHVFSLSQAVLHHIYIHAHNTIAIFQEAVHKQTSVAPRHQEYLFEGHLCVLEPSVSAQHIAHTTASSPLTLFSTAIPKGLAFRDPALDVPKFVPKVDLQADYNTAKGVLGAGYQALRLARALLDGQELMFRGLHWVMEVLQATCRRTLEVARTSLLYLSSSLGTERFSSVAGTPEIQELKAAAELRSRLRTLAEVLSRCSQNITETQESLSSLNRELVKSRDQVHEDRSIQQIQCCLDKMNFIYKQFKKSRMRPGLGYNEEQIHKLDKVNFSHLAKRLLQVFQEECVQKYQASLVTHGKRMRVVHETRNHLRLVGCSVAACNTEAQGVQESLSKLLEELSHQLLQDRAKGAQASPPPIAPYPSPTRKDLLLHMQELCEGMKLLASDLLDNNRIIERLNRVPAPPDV
As to conditions: kinase IKKε; 1 µmol/L single concentration; read-out: %-inhibition at 1 µmol/L, IKKε.

Assay [3] deals with panel of 255 wild-type kinases (Homo sapiens, UniProt Q13164). Conditions: kinase Erk5; 1 µmol/L single concentration; read-out: %-inhibition at 1 µmol/L, Erk5.
For assay [4], the target named is panel of 255 wild-type kinases (Homo sapiens, UniProt P51812). As to conditions: kinase RSK2; 1 µmol/L single concentration; read-out: %-inhibition at 1 µmol/L, RSK2.
The target in assay [5] is panel of 255 wild-type kinases (Homo sapiens, UniProt P05129). As to conditions: kinase PKCγ; 1 µmol/L single concentration; read-out: %-inhibition at 1 µmol/L, PKCγ.
The target of assay [6] is panel of 255 wild-type kinases (Homo sapiens, UniProt P48730). As to conditions: kinase CK1δ; 1 µmol/L single concentration; read-out: %-inhibition at 1 µmol/L, CK1δ.
The target of assay [7] is panel of 255 wild-type kinases (Homo sapiens, UniProt P07947). As to conditions: kinase YES; 1 µmol/L single concentration; read-out: %-inhibition at 1 µmol/L, YES.
In assay [8] the target is panel of 255 wild-type kinases (Homo sapiens, UniProt P45984). As to conditions: kinase JNK2; 1 µmol/L single concentration; read-out: %-inhibition at 1 µmol/L, JNK2.
The target in assay [9] is panel of 255 wild-type kinases (Homo sapiens, UniProt Q9UKE5). Conditions: kinase TNIK; 1 µmol/L single concentration; read-out: %-inhibition at 1 µmol/L, TNIK.
For assay [10], the target named is panel of 255 wild-type kinases (Homo sapiens, UniProt O96017). As to conditions: CHK2 kinase assay; 1 µmol/L single concentration; read-out: %-inhibition CHK2.
The target in assay [11] is panel of 255 wild-type kinases (Homo sapiens, UniProt Q04912). Conditions: kinase RON; 1 µmol/L single concentration; read-out: %-inhibition at 1 µmol/L, RON.
Assay [12] concerns the target panel of 255 wild-type kinases (Homo sapiens, UniProt Q9UK32). As to conditions: kinase RSK4; 1 µmol/L single concentration; read-out: %-inhibition at 1 µmol/L, RSK4.

Consider `Cn1cnc2c(F)c(Nc3ccc(Br)cc3Cl)c(C(=O)NOCCO)cc21` [selumetinib], for which the inhibition at 1 µM in [1] was -2.25%; in assay [2] it was -5.67%; in [3], 2.36%; in assay [4], -1.52%; in assay [5], -0.133%; in assay [6], -1.44%. Moreover, the inhibition at 1 µM in assay [7] is 14%; in assay [8], -2.13%; in assay [9] it was 2.3%; in [10], 4%; in assay [11], -1.28%; in assay [12], 5.4%.
As to `Cc1cc(Nc2ncnc3ccc(NC4=NC(C)(C)CO4)cc23)ccc1Oc1ccn2ncnc2c1` [tucatinib], the inhibition at 1 µM in assay [1] was 21%; in [2] it was -2.62%; in [3], -1.07%; in [4] it was -3%; in assay [5], -1.73%; in assay [6], -2.17%. The inhibition at 1 µM turned out to be 3.64% in [7]; 1.47% in assay [8]; 4% in [9]; 4% in [10]; 2.23% in [11]; 0.229% in assay [12].
